Source: the supplement of paper PMC10883282

Legend:
Experiment in all cases: relative viability vs DMSO control (72 h) (fraction); higher = more viable cells
[1] = test system: RD-ES
Outline: (§1)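 Sarcoma cell lines were grown in 384-well plates seeded toward 80–90% confluence and exposed 24 h later to serially diluted compound. After 72 h at 37 °C and 5% CO2, with 0.1% DMSO vehicle and a 5 µM positive control on the plates, ATPLite was read. Relative viability, given as percent growth averaged over up to triplicate wells, was rescaled so that 1 is full and 0 is none.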

[2] = test system: SYO-1
Outline: as §1

[3] = test system: SK-ES-1
Outline: as §1

[4] = test system: G401
Outline: as §1

[5] = test system: VA-ES-BJ
Outline: as §1

[6] = test system: KHOS-240S
Outline: as §1

[7] = test system: HT1080
Outline: as §1

[8] = test system: RD
Outline: as §1

[9] = test system: SW982
Outline: as §1

[10] = test system: SW1353
Outline: as §1

[11] = test system: SK-LMS-1
Outline: as §1

[12] = test system: MES-SA
Outline: as §1

COc1cc2ncnc(Nc3cccc(Cl)c3F)c2cc1OC(=O)N1CCN(C)C[C@H]1C [AZD-3759]
Conditions	relative viability
[1], 0.00017 µM	0.97
[1], 0.00051 µM	0.967
[1], 0.00152 µM	0.9816
[1], 0.00457 µM	0.977
[1], 0.01372 µM	0.983
[1], 0.04115 µM	0.991
[1], 0.1235 µM	0.9757
[1], 0.3704 µM	0.9684
[1], 1.111 µM	0.961
[1], 3.333 µM	0.948
[1], 10 µM	0.915
[2], 0.00017 µM	1.03
[2], 0.00051 µM	0.995
[2], 0.00152 µM	0.987
[2], 0.00457 µM	0.977
[2], 0.01372 µM	0.951
[2], 0.04115 µM	0.947
[2], 0.1235 µM	0.891
[2], 0.3704 µM	0.896
[2], 1.111 µM	0.851
[2], 3.333 µM	0.783
[2], 10 µM	0.614
[3], 0.00017 µM	1.09
[3], 0.00051 µM	0.999
[3], 0.00152 µM	1.06
[3], 0.00457 µM	1.01
[3], 0.01372 µM	1.06
[3], 0.04115 µM	1.06
[3], 0.1235 µM	0.978
[3], 0.3704 µM	0.999
[3], 1.111 µM	1.02
[3], 3.333 µM	0.908
[3], 10 µM	0.83
[4], 0.00017 µM	1.03
[4], 0.00051 µM	1.06
[4], 0.00152 µM	1.04
[4], 0.00457 µM	1.01
[4], 0.01372 µM	1.02
[4], 0.04115 µM	1.02
[4], 0.1235 µM	1.04
[4], 0.3704 µM	1.04
[4], 1.111 µM	1
[4], 3.333 µM	0.985
[4], 10 µM	0.939
[5], 0.00017 µM	1.03
[5], 0.00051 µM	1.05
[5], 0.00152 µM	1.04
[5], 0.00457 µM	1.02
[5], 0.01372 µM	1.02
[5], 0.04115 µM	0.992
[5], 0.1235 µM	0.986
[5], 0.3704 µM	0.949
[5], 1.111 µM	0.975
[5], 3.333 µM	0.972
[5], 10 µM	0.952
[6], 0.00017 µM	1.04
[6], 0.00051 µM	1.06
[6], 0.00152 µM	1.06
[6], 0.00457 µM	1.06
[6], 0.01372 µM	1.05
[6], 0.04115 µM	1.04
[6], 0.1235 µM	1.05
[6], 0.3704 µM	1.04
[6], 1.111 µM	0.9537
[6], 3.333 µM	0.976
[6], 10 µM	0.878
[7], 0.00017 µM	1.06
[7], 0.00051 µM	1.04
[7], 0.00152 µM	1.02
[7], 0.00457 µM	1.04
[7], 0.01372 µM	1.03
[7], 0.04115 µM	1.03
[7], 0.1235 µM	1.01
[7], 0.3704 µM	1.02
[7], 1.111 µM	1.026
[7], 3.333 µM	1
[7], 10 µM	1.02
[8], 0.00017 µM	1.04
[8], 0.00051 µM	1.1
[8], 0.00152 µM	1.1
[8], 0.00457 µM	1.1
[8], 0.01372 µM	1.11
[8], 0.04115 µM	1.09
[8], 0.1235 µM	1.09
[8], 0.3704 µM	1.12
[8], 1.111 µM	1.08
[8], 3.333 µM	1.06
[8], 10 µM	0.97
[9], 0.00017 µM	1.06
[9], 0.00051 µM	1.02
[9], 0.00152 µM	1.03
[9], 0.00457 µM	1.06
[9], 0.01372 µM	1.07
[9], 0.04115 µM	1.04
[9], 0.1235 µM	1.07
[9], 0.3704 µM	1.07
[9], 1.111 µM	1.01
[9], 3.333 µM	0.945
[9], 10 µM	0.889
[10], 0.00017 µM	1.02
[10], 0.00051 µM	1.02
[10], 0.00152 µM	1.04
[10], 0.00457 µM	0.998
[10], 0.01372 µM	0.964
[10], 0.04115 µM	0.983
[10], 0.1235 µM	0.979
[10], 0.3704 µM	0.868
[10], 1.111 µM	0.877
[10], 3.333 µM	0.8196
[10], 10 µM	0.769
[11], 0.00017 µM	1.14
[11], 0.00051 µM	1.12
[11], 0.00152 µM	1.08
[11], 0.00457 µM	1.09
[11], 0.01372 µM	1.09
[11], 0.04115 µM	1.09
[11], 0.1235 µM	1.09
[11], 0.3704 µM	1.088
[11], 1.111 µM	1.07
[11], 3.333 µM	1.02
[11], 10 µM	1.05
[12], 0.00017 µM	0.938
[12], 0.00051 µM	0.921
[12], 0.00152 µM	0.953
[12], 0.00457 µM	0.917
[12], 0.01372 µM	0.94
[12], 0.04115 µM	0.929
[12], 0.1235 µM	0.921
[12], 0.3704 µM	0.891
[12], 1.111 µM	0.902
[12], 3.333 µM	0.8425
[12], 10 µM	0.777
